Results taken from BindingDB's records for doi:10.1016/j.bmcl.2004.01.021 (Atherogenics, 2004).

Each compound was assayed against T1, Tumor necrosis factor receptor superfamily member 1A (Homo sapiens, UniProt P19438) (assay: ChEBML_224214).
T1 sequence (P19438 whole entry): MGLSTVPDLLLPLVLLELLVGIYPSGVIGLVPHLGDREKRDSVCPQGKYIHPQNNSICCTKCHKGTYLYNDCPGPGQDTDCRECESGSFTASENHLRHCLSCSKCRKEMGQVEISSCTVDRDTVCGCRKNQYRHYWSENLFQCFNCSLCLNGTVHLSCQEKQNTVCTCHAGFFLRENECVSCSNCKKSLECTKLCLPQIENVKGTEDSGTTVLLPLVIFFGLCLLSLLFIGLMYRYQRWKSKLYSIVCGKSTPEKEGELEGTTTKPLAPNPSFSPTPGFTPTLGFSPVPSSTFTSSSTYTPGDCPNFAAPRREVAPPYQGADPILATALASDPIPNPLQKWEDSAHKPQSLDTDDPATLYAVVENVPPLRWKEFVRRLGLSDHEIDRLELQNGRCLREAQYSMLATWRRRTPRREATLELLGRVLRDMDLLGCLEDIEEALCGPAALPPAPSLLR
Description: Inhibition of TNF-alpha-induced VCAM-1 expression

SMILES	IC50
COc1ccc(/C=C/C(=O)c2ccc(OC)cc2OC)cc1 [1-(2,4-Dimethoxy-phenyl)-3-(4-methoxy-phenyl)-propenone]	7 µM
COc1ccc(C(=O)/C=C/c2ccccc2)cc1 [1-(4-methoxyphenyl)-3-phenylprop-2-en-1-one (6)]	14 µM
COc1cc(OC)c(-c2cc3ccccc3s2)cc1/C=C/C(=O)c1ccc(OC(C)(C)C(=O)O)cc1 [2-{4-[(E)-3-(5-Benzo[b]thiophen-2-yl-2,4-dimethoxy-phenyl)-acryloyl]-phenoxy}-2-methyl-propionic acid]	6 µM
COc1cc(OC(C)(C)C(=O)O)c(/C=C/C(=O)c2ccc(C(F)(F)F)cc2)cc1-c1cccs1 [2-{5-Methoxy-2-[(E)-3-oxo-3-(4-trifluoromethyl-phenyl)-propenyl]-4-thiophen-2-yl-phenoxy}-2-methyl-propionic acid]	4 µM
COc1ccc(C(=O)/C=C/c2ccccc2)cc1OC [3',4'-dimethoxychalcone]	8 µM
COc1ccc(C(=O)/C=C/c2ccc(OC)cc2OC)cc1 [3-(2,4-Dimethoxy-phenyl)-1-(4-methoxy-phenyl)-propenone]	29 µM
COc1cc(OC)c(CCC(=O)c2cc(OC)c(OC)c(OC)c2)cc1Br [3-(5-Bromo-2,4-dimethoxy-phenyl)-1-(3,4,5-trimethoxy-phenyl)-propan-1-one]	> 50 µM
COc1ccc(Br)cc1CCC(=O)c1cc(OC)c(OC)c(OC)c1 [3-(5-Bromo-2-methoxy-phenyl)-1-(3,4,5-trimethoxy-phenyl)-propan-1-one]	> 50 µM
COc1cc(C(=O)/C=C/c2ccccc2)cc(OC)c1OC [3-phenyl-1-(3,4,5-trimethoxyphenyl)prop-2-en-1-one]	6 µM
CCOC(=O)c1ccc(COc2ccc(C(=O)/C=C/c3cc(-c4cccs4)ccc3OC)cc2OC)cc1 [4-{2-Methoxy-4-[(E)-3-(2-methoxy-5-thiophen-2-yl-phenyl)-acryloyl]-phenoxymethyl}-benzoic acid ethyl ester]	4 µM
COc1ccc(-c2cccs2)cc1/C=C/C(=O)c1ccc(OCc2ccc(C(=O)O)cc2)c(OC)c1 [4-{2-Methoxy-4-[(E)-3-(2-methoxy-5-thiophen-2-yl-phenyl)-acryloyl]-phenoxymethyl}-benzoic acid]	5 µM
COc1ccc(-c2cccs2)cc1C=CC(=O)c1ccc(OCc2ccc(NC(=O)OC(C)(C)C)cc2)c(OC)c1 [(4-{2-Methoxy-4-[(E)-3-(2-methoxy-5-thiophen-2-yl-phenyl)-acryloyl]-phenoxymethyl}-phenyl)-carbamic acid tert-butyl ester]	> 50 µM
O=C(/C=C/c1ccc(F)cc1)c1ccc(F)cc1 [(E)-1,3-Bis-(4-fluoro-phenyl)-propenone]	25 µM
COc1cc(/C=C/C(=O)c2ccc3c(c2)OC(O)(O)O3)cc(-c2cccs2)c1OC [(E)-1-(2,2-Dihydroxy-benzo[1,3]dioxol-5-yl)-3-(3,4-dimethoxy-5-thiophen-2-yl-phenyl)-propenone]	1 µM
COc1ccc(OC)c(C(=O)/C=C/c2cc(-c3cccs3)ccc2OC)c1 [(E)-1-(2,5-Dimethoxy-phenyl)-3-(2-methoxy-5-thiophen-2-yl-phenyl)-propenone]	2 µM
COc1ccc(-c2cccs2)cc1/C=C/C(=O)c1c(OC)cccc1OC [(E)-1-(2,6-Dimethoxy-phenyl)-3-(2-methoxy-5-thiophen-2-yl-phenyl)-propenone]	3 µM
COc1ccc(/C=C/C(=O)c2ccc(OC)c(OC)c2)cc1 [(E)-1-(3',4'-Dimethoxyphenyl)-3-(4''-methoxyphenyl)prop-2-en-1-one]	6 µM
COc1cc(-c2cccc(C(C)=O)c2)ccc1C(=O)C=Cc1cc(OC)c(OC)c(OC)c1 [(E)-1-(3'-Acetyl-3-methoxy-biphenyl-4-yl)-3-(3,4,5-trimethoxy-phenyl)-propenone]	4 µM
COc1ccc(-c2cccs2)cc1/C=C/C(=O)c1ccc(OC)c(OC)c1 [(E)-1-(3,4-Dimethoxy-phenyl)-3-(2-methoxy-5-thiophen-2-yl-phenyl)-propenone]	3 µM
